The record followed here is patent US10913742B2, “Oxadiazolones as transient receptor potential channel inhibitors” (Genentech, Inc., priority 2017, dated 2021).

Like-named read-outs stand apart in the source and are kept apart here.

Data set [1] is described as follows: Human liver microsome clearance (HLM-CLhep). Conditions: 0.5 mg/ml protein, 1 mM NADPH, 1 μM compound, 37° C. The format is in vitro ADME. On the procedure:
(§1) Certain pharmacokinetic attributes were evaluated for some compounds of the present disclosure. […] The compounds of the present disclosure were discovered to provide for an unexpected combination of high potency as measured by hTRPA1 IC50 and high stability as measured by RLM-CLhep, HLM-CLhep and Rat IV PK.
(§2) The reactions were incubated at 37° C. for 0, 20, 40 and 60 minutes and at each allotted time point an aliquot of the reaction mixture was added to ice-cold acetonitrile with internal standard. The samples were subsequently centrifuged at 3000×g for 10 minutes and supernatant was diluted in water before LC-MS/MS analysis.
On the technique in general: Microsomes from liver hold many membrane-bound enzymes, among them those of drug oxidation.

Data set [2] in a line: Rat IV PK (hepatic clearance). The format is in vivo. Conditions: rat IV dose of 1 mg/kg. On the procedure: as §1
Data set [3] is described as follows: Rat liver microsome clearance (RLM-CLhep). The format is in vitro ADME. Particulars: 0.5 mg/ml protein, 1 mM NADPH, 1 μM compound, 37° C. The method, then: as §1, §2
Data set [4] deals with human TRPA1 (Homo sapiens (Human), UniProt O75762). Put plainly: hTRPA1 CHO Ca2+ FLIPR assay (block of cinnamaldehyde induced calcium influx). The format is cell-based. An outline of the steps:
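CHO cells expressing TRPA1 loaded with calcium dye (1 h at 37° C, then 15 min at room temperature) in HBSS/20 mM HEPES pH 7.4/0.02% BSA. Compounds preincubated 20 min at room temperature before cinnamaldehyde addition, with FLIPR Ca2+ readout. IC50 from Hill fit, n fixed at 1.5.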

The mark [5] stands for this setting: repeated from Table 1, read-out: hTRPA1 IC50.
The mark [6] stands for this setting: CHO cells expressing TRPA1, 75 uM cinnamaldehyde, Hill coefficient fixed to 1.5, read-out: hTRPA1 (hTRPA1 CHO Ca2+ MAX EVO (IC50)).

Sequence of human TRPA1 (O75762 whole entry): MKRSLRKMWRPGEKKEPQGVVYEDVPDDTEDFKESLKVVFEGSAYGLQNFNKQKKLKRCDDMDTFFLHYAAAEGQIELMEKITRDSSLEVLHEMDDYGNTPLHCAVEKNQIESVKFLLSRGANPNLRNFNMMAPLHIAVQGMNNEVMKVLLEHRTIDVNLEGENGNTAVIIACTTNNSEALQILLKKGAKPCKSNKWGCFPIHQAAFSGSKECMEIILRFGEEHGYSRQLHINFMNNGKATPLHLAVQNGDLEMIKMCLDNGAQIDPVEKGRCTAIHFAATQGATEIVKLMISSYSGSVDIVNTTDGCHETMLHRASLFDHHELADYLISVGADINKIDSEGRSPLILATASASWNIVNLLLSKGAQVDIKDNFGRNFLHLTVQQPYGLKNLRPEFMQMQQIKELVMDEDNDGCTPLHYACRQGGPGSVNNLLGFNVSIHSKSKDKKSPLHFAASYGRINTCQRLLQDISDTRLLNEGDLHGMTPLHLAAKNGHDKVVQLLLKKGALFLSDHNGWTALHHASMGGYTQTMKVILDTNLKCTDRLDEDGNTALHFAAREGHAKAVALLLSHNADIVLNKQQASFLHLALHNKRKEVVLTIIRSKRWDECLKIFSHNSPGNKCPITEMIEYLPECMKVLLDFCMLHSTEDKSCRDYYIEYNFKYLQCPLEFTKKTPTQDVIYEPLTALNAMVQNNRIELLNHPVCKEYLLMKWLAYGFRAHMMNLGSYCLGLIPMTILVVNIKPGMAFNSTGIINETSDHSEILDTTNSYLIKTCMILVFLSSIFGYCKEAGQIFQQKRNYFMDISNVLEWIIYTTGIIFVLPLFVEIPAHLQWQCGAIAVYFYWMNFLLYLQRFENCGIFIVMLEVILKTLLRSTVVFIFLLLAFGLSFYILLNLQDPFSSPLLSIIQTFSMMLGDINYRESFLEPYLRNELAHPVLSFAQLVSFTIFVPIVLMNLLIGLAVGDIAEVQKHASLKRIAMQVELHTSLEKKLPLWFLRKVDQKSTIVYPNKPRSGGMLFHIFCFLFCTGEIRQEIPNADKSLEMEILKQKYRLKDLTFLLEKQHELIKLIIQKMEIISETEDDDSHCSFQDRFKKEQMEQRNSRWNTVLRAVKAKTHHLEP

The term IC50 denotes the point on the concentration scale where inhibition reaches its midpoint. For the compound `Cn1cnc2ncn(Cc3nn(C[C@@H](F)c4ccc(Cl)cc4)c(=O)o3)c(=O)c21` [Example Compound 14, (S)-3-(2-(4-chlorophenyl)-2-fluoroethyl)-5-((7-methyl-6-oxo-6H-purin-1 (7H)-yl)methyl)-1,3,4-oxadiazol-2(3H)-one], the “HLM-CLhep (human liver microsome clearance)” value (“HLM-CLhep” below) in data set [1] is reported as 6 mL/min/kg. In addition, the “Rat IV PK (hepatic clearance)” value in data set [2] is 17 mL/min/kg. Further, in data set [3], the “RLM-CLhep (rat liver microsome clearance)” value (“RLM-CLhep” for short) is 28 mL/min/kg. Also, in data set [4] (setting [5]), the IC50 was 34 nM.

On to `Cn1cnc2ncn(Cc3nn(CCc4ccc(Cl)cc4)c(=O)o3)c(=O)c21` [Example Compound 1, 3-[2-(4-chlorophenyl)ethyl]-5-[(7-methyl-6-oxo-purin-1-yl)methyl]-1,3,4-oxadiazol-2-one], for which, in data set [1], the “HLM-CLhep” value worked out at 11 mL/min/kg. The “Rat IV PK (hepatic clearance)” value in data set [2] was found to be 48 mL/min/kg. Also, the “RLM-CLhep” value in data set [3] stood at 34 mL/min/kg. Moreover, in data set [4] (setting [5]), the IC50 stood at 95 nM.

Consider `Cc1ccnc2ncn(Cc3nn([C@H]4C[C@H](c5ccc(Cl)cc5)C4)c(=O)o3)c(=O)c12` [compound 107, 3-[3-(4-chlorophenyl)cyclobutyl]-5-[(5-methyl-4-oxo-pyrido[2,3-d]pyrimidin-3-yl)methyl]-1,3,4-oxadiazol-2-one], for which the IC50 in data set [4] (setting [6]) is 6.3 nM.

Turning to `Cc1ncnc2ncn(Cc3nn(CCc4ccc(Cl)cc4)c(=O)o3)c(=O)c12` [compound 46, 3-(4-chlorophenethyl)-5-((5-methyl-4-oxopyrimido[4,5-d]pyrimidin-3(4H)-yl)methyl)-1,3,4-oxadiazol-2(3H)-one], the half-maximal inhibitory concentration (IC50) in data set [4] (setting [6]) was determined as 107 nM.

Regarding `Cn1cnc2ncn(Cc3nn(C[C@@H]4CCc5ccc(Cl)cc54)c(=O)o3)c(=O)c21` [compound 48], in data set [4] (setting [6]), the IC50 came to 196 nM.

For `O=c1c2cccnc2ncn1Cc1nn([C@H]2C[C@H](c3ccc(Cl)cc3)C2)c(=O)o1` [compound 98, trans-3-[3-(4-chlorophenyl)cyclobutyl]-5-[(4-oxopyrido[2,3-d]pyrimidin-3-yl)methyl]-1,3,4-oxadiazol-2-one], in data set [4] (setting [6]), the concentration for half-maximal inhibition (IC50) is 16.2 nM.

Consider `Cn1cnc2ncn(Cc3nn(CC(F)c4ccc5ccccc5c4)c(=O)o3)c(=O)c21` (stereo in doubt) [compound 38, 5-[(7-methyl-6-oxo-purin-1-yl)methyl]-3-[(2S)-2-fluoro-2-(2-naphthyl)ethyl]-1,3,4-oxadiazol-2-one], for which the IC50 in data set [4] (setting [6]) turned out to be 7 nM.

For `Cc1csc2ncc(Cc3nn(CCc4ccc(Cl)cc4)c(=O)o3)c(=O)n12` [compound 47, 3-(4-chlorophenethyl)-5-((3-methyl-5-oxo-5H-thiazolo[3,2-a]pyrimidin-6-yl)methyl)-1,3,4-oxadiazol-2(3H)-one], the IC50 in data set [4] (setting [6]) was determined as 65 nM.

For `Cn1cnc2ncn(Cc3nn(CCc4ccc(-c5ccccc5)cc4)c(=O)o3)c(=O)c21` [compound 55, 5-[(7-methyl-6-oxo-purin-1-yl)methyl]-3-[2-(4-phenylphenyl)ethyl]-1,3,4-oxadiazol-2-one], the IC50 in data set [4] (setting [6]) was determined as 251 nM.

In the case of `Cn1cnc2ncn(Cc3nn([C@H]4C[C@H](c5ccc(Cl)cc5)C4)c(=O)o3)c(=O)c21` [Example Compound 50, 3-[3-(4-chlorophenyl)cyclobutyl]-5-[(7-methyl-6-oxo-purin-1-yl)methyl]-1,3,4-oxadiazol-2-one], the “HLM-CLhep” value in data set [1] is given as 5 mL/min/kg. The “Rat IV PK (hepatic clearance)” value in data set [2] stood at 10 mL/min/kg. Besides, in data set [3], the “RLM-CLhep” value is 12 mL/min/kg.

As to `Cn1cnc2ncn(Cc3nn(CCc4ccc(Br)cc4)c(=O)o3)c(=O)c21` [compound 3, 3-(4-bromophenethyl)-5-((7-methyl-6-oxo-6H-purin-1(7H)-yl)methyl)-1,3,4-oxadiazol-2(3H)-one], in data set [4] (setting [6]), the IC50 stood at 44 nM.

Turning to `Cn1cnc2ncn(Cc3nn([C@H]4C[C@H](c5ccc(Cl)c(F)c5)C4)c(=O)o3)c(=O)c21` [compound 106, 3-[3-(4-chloro-3-fluoro-phenyl)cyclobutyl]-5-[(7-methyl-6-oxo-purin-1-yl)methyl]-1,3,4-oxadiazol-2-one], the IC50 in data set [4] (setting [6]) worked out at 29.9 nM.

Regarding `Cn1nnc2ncn(Cc3nn([C@H]4C[C@H](c5ccc(Cl)cc5)C4)c(=O)o3)c(=O)c21` [compound 64, trans-3-[3-(4-chlorophenyl)cyclobutyl]-5-[(1-methyl-7-oxo-triazolo[4,5-d]pyrimidin-6-yl)methyl]-1,3,4-oxadiazol-2-one], the IC50 in data set [4] (setting [6]) is 76.9 nM.

Turning to `Cc1ccnc2ncn(Cc3nn([C@H]4C[C@H](c5ccc(F)cc5)C4)c(=O)o3)c(=O)c12` [compound 88, 3-[3-(4-fluorophenyl)cyclobutyl]-5-[(5-methyl-4-oxo-pyrido[2,3-d]pyrimidin-3-yl)methyl]-1,3,4-oxadiazol-2-one], the IC50 in data set [4] (setting [6]) amounted to 5.76 nM.

`Cn1cnc2ncn(Cc3nn([C@H]4C[C@H](c5ccc(OC(F)F)cc5)C4)c(=O)o3)c(=O)c21` [compound 103, 3-[3-[(trans)-4-(difluoromethoxy)phenyl]cyclobutyl]-5-[(7-methyl-6-oxo-purin-1-yl)methyl]-1,3,4-oxadiazol-2-one]: the IC50 in data set [4] (setting [6]) amounted to 26 nM.

Turning to `Cc1ccnc2ncn(Cc3nn([C@H]4C[C@H](c5ccc6ncccc6c5)C4)c(=O)o3)c(=O)c12` [compound 66, 5-[(5-methyl-4-oxo-pyrido[2,3-d]pyrimidin-3-yl)methyl]-3-[3-(6-quinolyl)cyclobutyl]-1,3,4-oxadiazol-2-one], the IC50 in data set [4] (setting [6]) turned out to be 12.5 nM.

Take `Cn1cnc2ncn(Cc3nn([C@@H]4CC[C@@H](c5ccc(Cl)cc5)C4)c(=O)o3)c(=O)c21` [compound 100, 5-[(7-methyl-6-oxo-purin-1-yl)methyl]-3-[(1R,3R)-3-(4-chlorophenyl)cyclopentyl]-1,3,4-oxadiazol-2-one]: the half-maximal inhibitory concentration (IC50) in data set [4] (setting [6]) is 9.59 nM.

As to `Cc1nc(C)n2ncn(Cc3nn(CCc4ccc(Cl)cc4)c(=O)o3)c(=O)c12` [compound 13, 3-(4-chlorophenethyl)-5-((5,7-dimethyl-4-oxoimidazo[1,5-f][1,2,4]triazin-3(4H)-yl)methyl)-1,3,4-oxadiazol-2(3H)-one], in data set [4] (setting [6]), the IC50 came out at 265 nM.

As to `Cn1cnc2ncn(Cc3nn([C@@H]4CC[C@@H](c5cccc(Cl)c5)C4)c(=O)o3)c(=O)c21` (racemic) [compound 101, 5-[(7-methyl-6-oxo-purin-1-yl)methyl]-3-[rac-(1R,3R)-3-(3-chlorophenyl)cyclopentyl]-1,3,4-oxadiazol-2-one], the IC50 in data set [4] (setting [6]) worked out at 36.1 nM.

In the case of `Cc1ccnc2ncn(Cc3nn(CCc4ccc(Cl)cc4)c(=O)o3)c(=O)c12` [compound 7, 3-[2-(4-chlorophenyl)ethyl]-5-[(5-methyl-4-oxo-pyrido[2,3-d]pyrimidin-3-yl)methyl]-1,3,4-oxadiazol-2-one], the IC50 in data set [4] (setting [6]) was found to be 12 nM.

On to `Cn1c(=O)ccc2ncn(Cc3nn([C@H]4C[C@H](c5ccc(Cl)cc5)C4)c(=O)o3)c(=O)c21` [compound 83, 3-((4-((trans)-3-(4-chlorophenyl)cyclobutyl)-5-oxo-4,5-dihydro-1,3,4-oxadiazol-2-yl)methyl)-5-methylpyrido[3,2-d]pyrimidine-4,6(3H,5H)-dione], for which the IC50 in data set [4] (setting [6]) is 15.2 nM.

Regarding `COc1ccc([C@H]2C[C@H](n3nc(Cn4cnc5ncn(C)c5c4=O)oc3=O)C2)cc1` [compound 54, 3-(3-(4-methoxyphenyl)cyclobutyl)-5-((7-methyl-6-oxo-6,7-dihydro-1H-purin-1-yl)methyl)-1,3,4-oxadiazol-2(3H)-one], in data set [4] (setting [6]), the half-maximal inhibitory concentration (IC50) came out at 105 nM.

In the case of `Cn1cnc2ncn(Cc3nn(CCc4cccc(-c5ccccc5)c4)c(=O)o3)c(=O)c21` [compound 24, 7-methyl-1-([5-oxo-4-[2-(3-phenylphenyl)ethyl]-4,5-dihydro-1,3,4-oxadiazol-2-yl]methyl)-6,7-dihydro-1H-purin-6-one], the IC50 in data set [4] (setting [6]) stood at 338 nM.
